Series [1] can be described thus: Metabolism stability test (human liver microsomes). In kind it is in vitro ADME. The note with it: compound concentration 0.5 μmol/L, 37° C., 30 minutes, NADPH.
A short description of series [2]: Solubility test (1% DMSO addition, pH 6.8 artificial intestinal juice). The note with it: kinetic from dmso stock, 16 hours at 25° C. In kind it is physicochemical. The method, then:
The solubility of the compound of the present invention was determined under 1% DMSO addition conditions. 10 mmol/L solution of the compound was prepared with DMSO, and 6 μL of the solution of the compound of the present invention was added to 594 μL of pH 6.8 artificial intestinal juice (118 mL of 0.2 mol/L NaOH test solution and water were added to 250 mL of 0.2 mol/L potassium dihydrogen phosphate test solution to reach 1000 mL). The mixture was left standing for 16 hours at 25° C., and the mixture was vacuum-filtered. The filtrate was two-fold diluted with methanol/water=1/1 (V/V), and the compound concentration in the filtrate was measured with HPLC or LC/MS/MS by the absolute calibration method. The dilution concentration and the dilution solvent were changed as necessary.

The target in the next series is CYP1A2 (Homo sapiens (Human), UniProt P05177). As to the kind of experiment: CYP inhibition test, CYP1A2. Format: in vitro ADME. The conditions noted are these: pooled human liver microsomes; 7-ethoxyresorufin O-deethylation; given as 'five kinds'. The source says: (§1) Using commercially available pooled human hepatic microsome, and employing, as markers, 7-ethoxyresorufin O-deethylation (CYP1A2), tolbutamide methyl-hydroxylation (CYP2C9), mephenytoin 4'-hydroxylation (CYP2C19), dextromethorphan 0-demethylation (CYP2D6), and terfenadine hydroxylation (CYP3A4) as typical substrate metabolism reactions of human main five CYP enzyme forms (CYP1A2, 2C9, 2C19, 2D6, 3A4), an inhibitory degree of each metabolite production amount by the compound of the present invention was assessed. The reaction conditions are as follows: substrate, 0.5 μmol/L ethoxyresorufin (CYP1A2), 100 μmol/L tolbutamide (CYP2C9), 50 μmol/L S-mephenitoin (CYP2C19), 5 μmol/L dextromethorphan (CYP2D6), 1 μmol/L terfenedine (CYP3A4); reaction time, 15 minutes; reaction temperature, 37° C.; enzyme, pooled human liver microsomes 0.2 mg protein/mL; concentrations of the compound of the present invention, 1, 5, 10, 20 μmol/L (four points). As a reaction solution, each five kinds of substrates, human liver microsomes, or compound of the present invention in 50 mmol/L Hepes buffer were added to a 96-well plate at the composition as described above, and NADPH, as a cofactor was added to initiate metabolism reactions. After the incubation at 37° C. for 15 minutes, a methanol/acetonitrile=1/[…]) solution was added to stop the reaction. After the centrifugation at 3000 rpm for 15 minutes, resorufin (CYP1A2 metabolite) in the supernatant was quantified by a fluorescent multilabel counter or LC/MS/MS, and tolbutamide hydroxide (CYP2C9 metabolite), mephenytoin 4' hydroxide (CYP2C19 metabolite), dextrorphan (CYP2D6 metabolite), and terfenadine alcohol (CYP3A4 metabolite) were quantified by LC/MS/MS. Addition of only DMSO being a solvent dissolving a drug to a reaction system was adopted as a control (100%). Remaining activity (%) was calculated. IC50 was calculated by reverse presumption by a logistic model using the concentration and an inhibition rate.
CYP1A2, sequence (P05177 whole entry): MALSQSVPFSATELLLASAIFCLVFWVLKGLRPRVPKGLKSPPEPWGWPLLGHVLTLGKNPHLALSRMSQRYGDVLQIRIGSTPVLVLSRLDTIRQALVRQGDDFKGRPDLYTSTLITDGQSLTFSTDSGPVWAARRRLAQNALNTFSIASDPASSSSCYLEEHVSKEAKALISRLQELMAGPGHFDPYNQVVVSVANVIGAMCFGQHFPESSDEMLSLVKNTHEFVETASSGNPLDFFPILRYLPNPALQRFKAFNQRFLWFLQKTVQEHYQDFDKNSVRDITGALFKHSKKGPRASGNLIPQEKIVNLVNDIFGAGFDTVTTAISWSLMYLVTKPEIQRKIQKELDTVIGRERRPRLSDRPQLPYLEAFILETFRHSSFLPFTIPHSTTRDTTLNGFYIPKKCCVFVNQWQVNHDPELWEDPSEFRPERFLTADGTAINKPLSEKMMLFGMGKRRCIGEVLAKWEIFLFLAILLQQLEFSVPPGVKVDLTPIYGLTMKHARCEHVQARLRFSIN

Another series concerns the target CYP2C9 (Homo sapiens (Human), UniProt P11712). The series can be described thus: CYP inhibition test, CYP2C9. In kind it is in vitro ADME. The conditions noted are these: pooled human liver microsomes; tolbutamide methyl-hydroxylation; given as 'five kinds'.
Description: as §1

A further series concerns the target CYP2C19 (Homo sapiens (Human), UniProt P33261). The series can be described thus: CYP inhibition test, CYP2C19. The note with it: pooled human liver microsomes; mephenytoin 4′-hydroxylation; given as 'five kinds'. Format: in vitro ADME.
Description: as §1

The next series deals with CYP2D6 (Homo sapiens (Human), UniProt P10635). The series can be described thus: CYP inhibition test, CYP2D6. The note with it: pooled human liver microsomes; dextromethorphan O-demethylation; given as 'five kinds'. Format: in vitro ADME.
CYP2D6, sequence (P10635 whole entry): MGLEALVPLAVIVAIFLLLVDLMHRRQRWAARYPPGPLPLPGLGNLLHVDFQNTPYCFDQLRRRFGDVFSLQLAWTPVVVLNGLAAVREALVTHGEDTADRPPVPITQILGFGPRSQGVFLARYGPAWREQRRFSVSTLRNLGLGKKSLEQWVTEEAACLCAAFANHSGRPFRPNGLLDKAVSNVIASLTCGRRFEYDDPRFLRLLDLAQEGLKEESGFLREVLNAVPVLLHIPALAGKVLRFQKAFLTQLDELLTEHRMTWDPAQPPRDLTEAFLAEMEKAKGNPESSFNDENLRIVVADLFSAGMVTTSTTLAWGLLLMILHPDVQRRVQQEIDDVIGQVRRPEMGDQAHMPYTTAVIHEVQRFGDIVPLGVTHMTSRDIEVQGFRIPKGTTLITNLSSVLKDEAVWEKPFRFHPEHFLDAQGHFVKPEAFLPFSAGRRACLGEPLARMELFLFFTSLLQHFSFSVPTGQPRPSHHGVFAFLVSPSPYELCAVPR
Description: as §1

The next series has as its target CYP3A4 (Homo sapiens (Human), UniProt P08684). The series can be described thus: CYP inhibition test, CYP3A4. In kind it is in vitro ADME. The conditions noted are these: pooled human liver microsomes; terfenadine hydroxylation; given as 'five kinds'.
Description: as §1

A short description of series [3]: BA test (oral absorption). In kind it is in vivo. The note with it: plasma; mice or SD rats; from AUCs of oral and intravenous administration. The method, then:
Materials and methods for experiments to evaluate oral absorption
(1) Animals: the mice or SD rats were used.
(2) Breeding conditions: the mice or SD rats were allowed to freely take solid food and sterilized tap water.
(3) Setting of dosage and grouping: Oral administration and intravenous administration were performed with a predetermined dosage. Grouping was set as below. (dosage changed per compound)
Oral administration: 1 to 30 mg/kg (n=2 to 3)
Intravenous administration: 0.5 to 10 mg/kg (n=2 to 3)
(4) Preparation of administration solution: Oral administration was performed in the form of a suspension or a solution. Intravenous administration was performed after solubilization.
(5) Routes of administration: Oral administration was performed mandatory into the stomach by oral sonde. Intravenous administration was performed from caudal vein or femoral vein by syringes with needle.
(6) Evaluation items: blood was collected over time, and the plasma concentration of the compound of the present invention was measured by LC/MS/MS.
(7) Statistical analysis: regarding the transition of the plasma concentration of the compound of the present invention, the area under the plasma concentration-time curve (AUC) was calculated by non-linear least squares program WinNonlin (registered trademark), and the bioavailability (BA) of the compound of the present invention was calculated from the AUCs of the oral administration group and intravenous administration group.

Converted amounts (≈) assume the structure as drawn.

CYP2C9, sequence (P11712 whole entry): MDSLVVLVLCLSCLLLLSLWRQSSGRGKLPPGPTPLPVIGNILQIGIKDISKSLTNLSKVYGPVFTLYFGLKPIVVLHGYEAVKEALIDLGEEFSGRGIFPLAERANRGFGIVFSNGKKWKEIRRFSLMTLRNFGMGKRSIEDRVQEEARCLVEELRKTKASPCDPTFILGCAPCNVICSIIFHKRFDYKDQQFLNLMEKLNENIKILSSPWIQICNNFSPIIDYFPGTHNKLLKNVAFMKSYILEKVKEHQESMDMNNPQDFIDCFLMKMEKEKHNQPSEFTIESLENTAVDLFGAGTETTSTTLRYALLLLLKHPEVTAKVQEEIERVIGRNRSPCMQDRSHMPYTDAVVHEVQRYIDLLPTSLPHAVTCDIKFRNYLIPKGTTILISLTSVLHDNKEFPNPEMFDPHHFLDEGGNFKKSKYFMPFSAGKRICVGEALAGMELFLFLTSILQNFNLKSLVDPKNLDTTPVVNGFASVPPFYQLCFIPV
CYP3A4, sequence (P08684 whole entry): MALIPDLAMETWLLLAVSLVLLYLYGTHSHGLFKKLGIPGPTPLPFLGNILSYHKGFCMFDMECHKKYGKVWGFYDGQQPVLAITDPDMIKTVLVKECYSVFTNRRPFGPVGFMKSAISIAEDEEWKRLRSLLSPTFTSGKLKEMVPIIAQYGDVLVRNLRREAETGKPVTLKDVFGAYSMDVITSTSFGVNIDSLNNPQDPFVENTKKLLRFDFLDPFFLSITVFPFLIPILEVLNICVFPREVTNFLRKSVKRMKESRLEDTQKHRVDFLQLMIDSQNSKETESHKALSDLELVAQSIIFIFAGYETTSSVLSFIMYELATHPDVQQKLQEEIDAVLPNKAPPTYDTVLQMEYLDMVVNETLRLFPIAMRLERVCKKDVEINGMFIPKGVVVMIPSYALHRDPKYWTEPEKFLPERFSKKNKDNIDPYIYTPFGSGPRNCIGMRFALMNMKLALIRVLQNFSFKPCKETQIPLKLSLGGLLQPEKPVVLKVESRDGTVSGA
CYP2C19, sequence (P33261 whole entry): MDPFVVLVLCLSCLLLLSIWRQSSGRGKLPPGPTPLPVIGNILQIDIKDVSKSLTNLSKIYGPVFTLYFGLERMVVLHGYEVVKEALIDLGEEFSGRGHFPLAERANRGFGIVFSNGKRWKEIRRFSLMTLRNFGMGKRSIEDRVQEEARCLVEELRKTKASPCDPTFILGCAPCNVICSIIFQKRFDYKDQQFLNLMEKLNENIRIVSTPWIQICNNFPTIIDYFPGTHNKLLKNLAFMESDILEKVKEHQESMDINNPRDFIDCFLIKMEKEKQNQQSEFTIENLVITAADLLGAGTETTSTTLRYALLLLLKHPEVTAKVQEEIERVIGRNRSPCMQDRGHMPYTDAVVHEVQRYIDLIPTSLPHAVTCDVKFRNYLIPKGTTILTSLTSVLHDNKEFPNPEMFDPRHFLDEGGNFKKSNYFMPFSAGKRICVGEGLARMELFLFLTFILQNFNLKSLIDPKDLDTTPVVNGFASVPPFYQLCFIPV

In series [1], `Cc1ccc(-c2nn3c(c2NC(=O)CS(C)(=O)=O)C(=O)N[C@@]2(CCc4cc(OCC(F)(F)F)ccc42)C3)nc1` [Compound I-6] returned a Remaining rate of 92.4%. Also, the solubility at 16 h in series [2] is over 50 µM. Besides, the IC50 against CYP1A2, on CYP2C9, against CYP2C19, against CYP2D6 and at CYP3A4 was over 20 µM in each case. The bioavailability in series [3] came out at 55.1%.

For `N#Cc1ccc(-c2nn3c(c2NC(=O)CC(F)(F)F)C(=O)N[C@@]2(CCc4cc(OCC(F)(F)F)ccc42)C3)nc1` [Compound I-14], in series [1], the Remaining rate amounted to 103%. The compound also displayed a solubility at 16 h in series [2] of 41.8 µM (≈ 23.6 µg/mL). Further, the IC50 against CYP1A2, on CYP2C9, at CYP2C19, against CYP2D6 and on CYP3A4 was over 20 µM throughout.

In turn, `Cc1ccc(-c2nn3c(c2NC(=O)CS(C)(=O)=O)C(=O)N[C@@]2(CCc4cc(OCC(F)(F)F)ccc42)C3)cc1` [Compound I-20] had a Remaining rate in series [1] of 74.5%. The IC50 at CYP1A2, at CYP2C9, on CYP2C19, against CYP2D6 and against CYP3A4 was over 20 µM each time. For the same compound, the bioavailability in series [3] amounted to 63.4%.

`CS(=O)(=O)CC(=O)Nc1c(CCC2CC2)nn2c1C(=O)N[C@@]1(CCc3cc(OCC(F)(F)F)ccc31)C2` [Compound I-46] gave a Remaining rate in series [1] of 78.1%. This compound also came in with a solubility at 16 h in series [2] of over 50 µM. For the same compound, the IC50 against CYP1A2, against CYP2C9, against CYP2C19, on CYP2D6 and against CYP3A4 was over 20 µM each time. In addition, the bioavailability in series [3] came out at 53.1%.

Take `CS(=O)(=O)CC(=O)Nc1c(CCC(F)(F)F)nn2c1C(=O)N[C@@]1(CCc3cc(OCC(F)(F)F)ccc31)C2` [Compound I-58]: the Remaining rate in series [1] came out at 88.4%. In series [2], the solubility at 16 h is over 50 µM. In addition, the IC50 against CYP1A2, on CYP2C9, against CYP2C19, at CYP2D6 and on CYP3A4 was over 20 µM each time. In series [3], this compound registered a bioavailability of 88.2%.

The values above are taken from patent US12227509B2, “Dihydropyrazolopyrazinone derivative having MGAT2 inhibitory activity” (Shionogi & Co., Ltd., priority 2019, dated 2025).
